Test results taken from US12157741B2, “Macrocyclic inhibitors of DYRK1A” (DANA-FARBER CANCER INSTITUTE, INC., priority 2018, dated 2024).
Read-outs that look alike come from different tables or passages of the source.

Tests used:
various enzymes [1] = biological target: T1, various enzymes (Homo sapiens, UniProt Q6PHR2); settings: ULK3; 1 uM
T1 sequence (Q6PHR2 1-472): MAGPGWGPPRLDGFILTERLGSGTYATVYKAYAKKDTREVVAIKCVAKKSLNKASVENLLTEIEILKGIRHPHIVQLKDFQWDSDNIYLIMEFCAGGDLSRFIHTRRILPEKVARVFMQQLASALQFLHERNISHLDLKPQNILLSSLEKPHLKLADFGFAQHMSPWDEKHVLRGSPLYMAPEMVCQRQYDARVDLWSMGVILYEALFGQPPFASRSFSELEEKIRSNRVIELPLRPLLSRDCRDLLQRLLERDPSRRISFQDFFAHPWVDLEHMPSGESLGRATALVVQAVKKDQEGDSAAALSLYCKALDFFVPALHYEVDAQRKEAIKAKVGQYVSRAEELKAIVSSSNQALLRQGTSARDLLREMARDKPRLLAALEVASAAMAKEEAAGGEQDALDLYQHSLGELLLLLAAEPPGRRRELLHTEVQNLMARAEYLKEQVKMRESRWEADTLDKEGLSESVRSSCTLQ
Description: (§1) Ambit profiling from Eurofins (formerly Discoverx) was conducted in accordance with the manufacturer's instructions.

various enzymes [2] = biological target: T2, various enzymes (Homo sapiens, UniProt Q13043); settings: MST1; 1 uM
T2 sequence (Q13043 1-487): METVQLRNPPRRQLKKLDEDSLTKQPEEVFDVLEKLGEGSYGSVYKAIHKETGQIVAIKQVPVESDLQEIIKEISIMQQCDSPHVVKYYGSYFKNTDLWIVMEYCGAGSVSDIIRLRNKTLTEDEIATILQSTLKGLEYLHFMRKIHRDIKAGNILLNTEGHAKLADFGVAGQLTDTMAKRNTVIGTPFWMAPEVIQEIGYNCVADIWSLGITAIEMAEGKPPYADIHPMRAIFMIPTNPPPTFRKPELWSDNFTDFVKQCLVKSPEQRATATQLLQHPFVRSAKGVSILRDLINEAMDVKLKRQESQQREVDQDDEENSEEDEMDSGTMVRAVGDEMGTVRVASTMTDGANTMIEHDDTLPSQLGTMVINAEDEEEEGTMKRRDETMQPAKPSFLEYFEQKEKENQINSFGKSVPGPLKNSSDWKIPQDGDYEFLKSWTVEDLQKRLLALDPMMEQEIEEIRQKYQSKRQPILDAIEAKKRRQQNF
Description: as §1

various enzymes [3] = biological target: various enzymes (Homo sapiens, UniProt P23458); settings: 1 uM
Description: as §1

various enzymes [4] = biological target: various enzymes (Homo sapiens, UniProt P57059); settings: SIK; 1 uM
Description: as §1

various enzymes [5] = biological target: T3, various enzymes (Homo sapiens, UniProt O14733); settings: MKK7; 1 uM
T3 sequence (O14733 1-419): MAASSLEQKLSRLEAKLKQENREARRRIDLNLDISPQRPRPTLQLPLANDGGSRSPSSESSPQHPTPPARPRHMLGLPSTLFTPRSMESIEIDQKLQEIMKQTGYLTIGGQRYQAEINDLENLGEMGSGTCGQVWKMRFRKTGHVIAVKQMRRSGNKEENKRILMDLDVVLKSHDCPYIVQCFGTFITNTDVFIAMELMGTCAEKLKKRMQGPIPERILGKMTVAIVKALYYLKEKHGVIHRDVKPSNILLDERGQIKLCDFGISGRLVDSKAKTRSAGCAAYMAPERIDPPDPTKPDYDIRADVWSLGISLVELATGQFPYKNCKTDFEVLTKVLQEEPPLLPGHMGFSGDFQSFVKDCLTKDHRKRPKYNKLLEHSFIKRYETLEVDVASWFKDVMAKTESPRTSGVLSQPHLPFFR
Description: as §1

various enzymes [6] = biological target: various enzymes (Homo sapiens, UniProt Q9NYY3); settings: PLK2; 1 uM
Description: as §1

various enzymes [7] = biological target: various enzymes (Homo sapiens, UniProt P53779); settings: JNK3; 1 uM
Description: as §1

various enzymes [8] = biological target: various enzymes (Homo sapiens, UniProt Q16539); settings: p38-alpha; 1 uM
Description: as §1

various enzymes [9] = biological target: various enzymes (Homo sapiens, UniProt O94921); settings: PFTK1; 1 uM
Description: as §1

various enzymes [10] = biological target: T4, various enzymes (Homo sapiens, UniProt Q9H093); settings: SNARK; 1 uM
T4 sequence (Q9H093 1-628): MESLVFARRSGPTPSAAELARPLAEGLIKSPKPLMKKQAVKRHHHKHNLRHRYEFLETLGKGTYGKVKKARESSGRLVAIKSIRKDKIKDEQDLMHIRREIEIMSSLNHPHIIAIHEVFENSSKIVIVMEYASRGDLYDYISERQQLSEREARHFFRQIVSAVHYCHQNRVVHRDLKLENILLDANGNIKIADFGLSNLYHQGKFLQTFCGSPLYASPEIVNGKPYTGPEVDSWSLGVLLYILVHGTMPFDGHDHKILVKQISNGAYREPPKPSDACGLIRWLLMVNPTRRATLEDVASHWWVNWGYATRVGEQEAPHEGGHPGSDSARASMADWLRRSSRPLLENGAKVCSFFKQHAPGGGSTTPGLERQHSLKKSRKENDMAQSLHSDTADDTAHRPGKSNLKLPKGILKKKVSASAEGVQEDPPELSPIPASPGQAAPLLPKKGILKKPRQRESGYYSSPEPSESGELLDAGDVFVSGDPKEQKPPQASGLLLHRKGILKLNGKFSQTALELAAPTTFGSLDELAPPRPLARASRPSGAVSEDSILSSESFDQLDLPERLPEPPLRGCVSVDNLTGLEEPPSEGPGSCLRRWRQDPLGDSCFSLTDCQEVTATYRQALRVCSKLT
Description: as §1

various enzymes [11] = biological target: various enzymes (Homo sapiens, UniProt P00533, G719C)
Description: as §1

various enzymes [12] = biological target: various enzymes (Homo sapiens, UniProt Q00526); settings: CDK3; 1 uM
Sequence of various enzymes (Homo sapiens, UniProt Q00526) (Q00526 whole entry): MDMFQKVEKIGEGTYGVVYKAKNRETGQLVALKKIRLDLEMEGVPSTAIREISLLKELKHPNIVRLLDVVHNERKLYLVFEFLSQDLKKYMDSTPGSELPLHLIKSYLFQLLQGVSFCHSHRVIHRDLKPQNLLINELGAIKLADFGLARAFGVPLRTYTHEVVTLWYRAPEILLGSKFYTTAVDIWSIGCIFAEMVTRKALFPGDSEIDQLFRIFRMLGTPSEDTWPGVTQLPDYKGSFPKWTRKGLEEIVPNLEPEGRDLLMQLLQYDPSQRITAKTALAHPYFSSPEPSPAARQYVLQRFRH
Description: as §1

Sequence of various enzymes (Homo sapiens, UniProt P23458) (P23458 whole entry): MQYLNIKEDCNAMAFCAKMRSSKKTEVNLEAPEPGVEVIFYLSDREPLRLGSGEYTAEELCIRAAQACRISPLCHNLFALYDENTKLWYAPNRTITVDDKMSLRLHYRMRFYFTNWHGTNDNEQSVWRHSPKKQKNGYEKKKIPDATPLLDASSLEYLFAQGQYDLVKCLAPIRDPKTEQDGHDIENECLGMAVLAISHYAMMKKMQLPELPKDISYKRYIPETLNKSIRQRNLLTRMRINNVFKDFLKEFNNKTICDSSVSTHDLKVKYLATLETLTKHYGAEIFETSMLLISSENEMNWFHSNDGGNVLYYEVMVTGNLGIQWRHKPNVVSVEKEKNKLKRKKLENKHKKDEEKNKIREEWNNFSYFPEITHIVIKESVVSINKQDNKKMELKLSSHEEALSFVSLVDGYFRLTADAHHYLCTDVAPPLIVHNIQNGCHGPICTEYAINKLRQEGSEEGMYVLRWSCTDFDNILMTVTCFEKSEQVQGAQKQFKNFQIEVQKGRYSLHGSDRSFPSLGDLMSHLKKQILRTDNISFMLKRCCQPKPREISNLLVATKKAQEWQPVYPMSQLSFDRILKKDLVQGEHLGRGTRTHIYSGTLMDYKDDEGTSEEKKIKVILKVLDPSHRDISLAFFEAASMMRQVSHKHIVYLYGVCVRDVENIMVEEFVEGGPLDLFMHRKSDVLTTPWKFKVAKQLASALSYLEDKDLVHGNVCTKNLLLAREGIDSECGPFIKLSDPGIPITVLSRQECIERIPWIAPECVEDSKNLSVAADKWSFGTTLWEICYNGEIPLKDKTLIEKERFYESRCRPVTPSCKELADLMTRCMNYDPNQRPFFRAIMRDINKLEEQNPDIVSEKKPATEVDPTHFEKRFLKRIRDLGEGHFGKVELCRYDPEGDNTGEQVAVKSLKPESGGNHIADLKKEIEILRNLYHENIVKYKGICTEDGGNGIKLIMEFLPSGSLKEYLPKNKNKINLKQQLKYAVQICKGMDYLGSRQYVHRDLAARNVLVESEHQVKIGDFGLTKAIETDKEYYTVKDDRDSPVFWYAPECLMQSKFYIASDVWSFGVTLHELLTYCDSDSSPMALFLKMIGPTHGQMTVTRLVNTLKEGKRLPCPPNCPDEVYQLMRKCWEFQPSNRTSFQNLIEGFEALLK
Sequence of various enzymes (Homo sapiens, UniProt O94921) (O94921 whole entry): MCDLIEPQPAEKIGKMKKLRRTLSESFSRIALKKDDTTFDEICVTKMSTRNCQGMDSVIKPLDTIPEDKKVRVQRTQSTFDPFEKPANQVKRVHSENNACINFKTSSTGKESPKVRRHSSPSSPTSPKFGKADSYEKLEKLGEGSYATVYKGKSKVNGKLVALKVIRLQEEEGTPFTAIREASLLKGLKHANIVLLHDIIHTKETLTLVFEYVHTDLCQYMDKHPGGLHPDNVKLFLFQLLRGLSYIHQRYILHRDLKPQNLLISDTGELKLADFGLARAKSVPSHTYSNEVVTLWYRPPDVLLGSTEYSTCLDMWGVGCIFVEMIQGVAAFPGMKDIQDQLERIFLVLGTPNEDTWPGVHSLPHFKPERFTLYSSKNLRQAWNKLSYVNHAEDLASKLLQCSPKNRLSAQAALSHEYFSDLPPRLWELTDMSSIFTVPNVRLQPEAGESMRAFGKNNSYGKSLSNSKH
Sequence of various enzymes (Homo sapiens, UniProt Q9NYY3) (Q9NYY3 whole entry): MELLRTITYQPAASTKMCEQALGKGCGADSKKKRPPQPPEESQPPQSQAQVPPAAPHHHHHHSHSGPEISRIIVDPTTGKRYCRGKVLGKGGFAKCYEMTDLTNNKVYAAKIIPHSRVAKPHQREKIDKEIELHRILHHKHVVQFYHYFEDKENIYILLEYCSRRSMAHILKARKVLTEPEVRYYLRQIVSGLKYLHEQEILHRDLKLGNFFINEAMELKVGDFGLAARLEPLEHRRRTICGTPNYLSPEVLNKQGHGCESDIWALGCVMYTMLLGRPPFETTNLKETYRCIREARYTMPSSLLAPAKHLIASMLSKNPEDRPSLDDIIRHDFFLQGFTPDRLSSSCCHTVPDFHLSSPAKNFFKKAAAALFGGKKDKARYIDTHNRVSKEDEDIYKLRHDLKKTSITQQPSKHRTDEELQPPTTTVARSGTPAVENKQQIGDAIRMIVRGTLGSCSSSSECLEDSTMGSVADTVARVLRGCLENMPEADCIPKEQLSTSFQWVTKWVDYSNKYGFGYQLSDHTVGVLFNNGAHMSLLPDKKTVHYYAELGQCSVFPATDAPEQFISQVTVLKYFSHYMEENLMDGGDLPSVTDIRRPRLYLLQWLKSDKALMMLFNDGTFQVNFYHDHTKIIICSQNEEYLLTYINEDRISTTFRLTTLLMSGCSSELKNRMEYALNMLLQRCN
Sequence of various enzymes (Homo sapiens, UniProt P57059) (P57059 whole entry): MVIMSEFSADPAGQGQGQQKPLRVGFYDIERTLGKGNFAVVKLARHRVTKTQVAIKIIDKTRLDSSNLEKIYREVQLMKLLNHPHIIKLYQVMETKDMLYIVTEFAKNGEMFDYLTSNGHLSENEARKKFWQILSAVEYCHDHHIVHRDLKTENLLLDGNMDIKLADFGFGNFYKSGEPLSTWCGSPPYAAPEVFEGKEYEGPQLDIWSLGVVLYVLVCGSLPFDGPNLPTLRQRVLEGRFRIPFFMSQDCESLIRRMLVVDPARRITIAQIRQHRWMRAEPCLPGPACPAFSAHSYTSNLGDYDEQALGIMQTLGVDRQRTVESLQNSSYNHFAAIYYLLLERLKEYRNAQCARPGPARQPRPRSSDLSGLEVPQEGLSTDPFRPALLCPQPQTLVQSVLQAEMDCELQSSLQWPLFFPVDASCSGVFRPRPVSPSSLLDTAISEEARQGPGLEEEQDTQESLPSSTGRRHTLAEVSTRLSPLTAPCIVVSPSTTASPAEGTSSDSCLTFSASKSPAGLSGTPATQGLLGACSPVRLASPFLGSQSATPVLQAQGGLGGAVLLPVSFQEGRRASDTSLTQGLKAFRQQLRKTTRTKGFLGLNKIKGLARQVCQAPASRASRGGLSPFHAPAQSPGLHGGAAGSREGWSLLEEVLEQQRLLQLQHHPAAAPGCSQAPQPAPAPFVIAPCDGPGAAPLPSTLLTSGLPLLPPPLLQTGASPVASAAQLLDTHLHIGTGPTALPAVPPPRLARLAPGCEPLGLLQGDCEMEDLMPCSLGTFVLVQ
Sequence of various enzymes (Homo sapiens, UniProt P53779) (P53779 whole entry): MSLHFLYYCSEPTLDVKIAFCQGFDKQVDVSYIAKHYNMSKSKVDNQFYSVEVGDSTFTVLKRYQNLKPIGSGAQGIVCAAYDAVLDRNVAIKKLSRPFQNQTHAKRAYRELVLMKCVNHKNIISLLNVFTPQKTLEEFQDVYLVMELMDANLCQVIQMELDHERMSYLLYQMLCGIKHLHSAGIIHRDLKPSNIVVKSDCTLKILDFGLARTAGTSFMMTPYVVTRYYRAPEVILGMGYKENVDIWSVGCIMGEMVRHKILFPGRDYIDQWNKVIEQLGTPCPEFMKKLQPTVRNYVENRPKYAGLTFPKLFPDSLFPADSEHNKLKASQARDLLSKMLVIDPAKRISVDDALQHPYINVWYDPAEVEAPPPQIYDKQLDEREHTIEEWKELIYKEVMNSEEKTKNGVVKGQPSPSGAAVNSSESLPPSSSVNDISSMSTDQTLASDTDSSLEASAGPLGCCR
Sequence of various enzymes (Homo sapiens, UniProt Q16539) (Q16539 whole entry): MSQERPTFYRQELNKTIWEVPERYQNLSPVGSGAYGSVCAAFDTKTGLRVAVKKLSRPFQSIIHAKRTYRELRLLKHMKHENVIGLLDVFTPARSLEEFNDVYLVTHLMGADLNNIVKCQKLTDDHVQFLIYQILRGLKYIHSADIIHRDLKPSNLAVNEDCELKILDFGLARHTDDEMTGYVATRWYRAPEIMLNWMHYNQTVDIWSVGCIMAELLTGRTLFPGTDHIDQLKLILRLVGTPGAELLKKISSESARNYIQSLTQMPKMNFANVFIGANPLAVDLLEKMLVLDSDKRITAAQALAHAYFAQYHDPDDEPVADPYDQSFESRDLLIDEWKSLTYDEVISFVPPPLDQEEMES

Row | Structure (SMILES) | Ambit profiling (various enzymes [1]) | Ambit profiling (various enzymes [2]) | Ambit profiling (various enzymes [3]; JAK1(JH1domain-catalytic)) | Ambit profiling (various enzymes [3]; JAK1(JH2domain-pseudokinase)) | Ambit profiling (various enzymes [4]) | Ambit profiling (various enzymes [5]) | Ambit profiling (various enzymes [6]) | Ambit profiling (various enzymes [7]) | Ambit profiling (various enzymes [8]) | Ambit profiling (various enzymes [9]) | Ambit profiling (various enzymes [10]) | Ambit profiling (various enzymes [11]; EGFR(G719C), 1 uM) | Ambit profiling (various enzymes [12]) | Ambit profiling (various enzymes [11])
1 | CN1Cc2nn(C)cc2-c2cnc3[nH]cc(c3c2)-c2cnn(c2)CCCC1=O [Compound 41, (Z)-31,5-dimethyl-11H,21H,31H-5-aza-2(3,5)-pyrrolo[2,3-b]pyridina-1(4,1),3(4,3)-dipyrazolacyclononaphan-6-one] | 5.6 | 4.7 | 18 | 9.1 | 84 | 28 | 90 | 0.75 | 99 | 69 | 4.3 | 100 | 50 | 
2 | CN1Cc2nn(C)c(C#N)c2-c2cnc3[nH]cc(c3c2)-c2cn(nc2C(F)(F)F)CCCC1=O [Compound 48, (Z)-31,5-dimethyl-6-oxo-13-(trifluoromethyl)-11H,21H,31H-5-aza-2(3,5)-pyrrolo[2,3-b]pyridina-1(4,1),3(4,3)-dipyrazolacyclononaphane-35-carbonitrile] | 97 | 100 | 100 | 100 | 59 | 99 | 100 | 14 | 95 | 91 | 100 |  | 100 | 86
